Test results published in US20250263459A1, “STABILIZED PACAP PEPTIDE” (SENJU PHARMACEUTICAL CO., LTD., priority 2019, published 2025).
Starred links: 1 amine or outer side, 2 acyl side, 3 side chain; linkers in the order of their positions; H or OH if unused. Non-standard residues stand in square brackets, D forms with d. Residues, ends and D or L forms follow the SMILES beside them. No end group written: not given here. *: point of attachment. Ala(1H-tetrazol-5-yl) = N[C@@H](Cc1nnn[nH]1)C(=O)O; Tz = tetrazole-substituted aspartic acid; X1 = O=C([C@@H](Cc1nnn[nH]1)N[*:1])[*:2]; X3 = O=C([C@H](CCc1nnn[nH]1)N[*:1])[*:2]; Isovaleryl = CC(C)CC(=O)*; Nle = CCCC[C@H](N)C(=O)O; Propionyl = CCC(=O)*

T1: PAC1 receptor (UniProt P41586 21-468, limits assumed)
T1 sequence (looked up): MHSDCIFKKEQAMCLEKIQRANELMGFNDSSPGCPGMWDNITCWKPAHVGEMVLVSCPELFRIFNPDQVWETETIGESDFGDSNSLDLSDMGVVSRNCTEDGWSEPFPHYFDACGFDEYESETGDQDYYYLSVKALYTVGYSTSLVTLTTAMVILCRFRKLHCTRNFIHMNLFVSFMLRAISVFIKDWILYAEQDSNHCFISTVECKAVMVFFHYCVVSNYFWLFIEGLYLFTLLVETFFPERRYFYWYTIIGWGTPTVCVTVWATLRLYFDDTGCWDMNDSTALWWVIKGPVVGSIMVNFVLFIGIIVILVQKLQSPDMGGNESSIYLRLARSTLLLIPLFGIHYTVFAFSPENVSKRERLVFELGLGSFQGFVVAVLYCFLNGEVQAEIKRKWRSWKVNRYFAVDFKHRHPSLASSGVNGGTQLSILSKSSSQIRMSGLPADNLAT

T2: VPAC1 receptor (UniProt P32241 31-457, limits assumed)
T2 sequence (looked up): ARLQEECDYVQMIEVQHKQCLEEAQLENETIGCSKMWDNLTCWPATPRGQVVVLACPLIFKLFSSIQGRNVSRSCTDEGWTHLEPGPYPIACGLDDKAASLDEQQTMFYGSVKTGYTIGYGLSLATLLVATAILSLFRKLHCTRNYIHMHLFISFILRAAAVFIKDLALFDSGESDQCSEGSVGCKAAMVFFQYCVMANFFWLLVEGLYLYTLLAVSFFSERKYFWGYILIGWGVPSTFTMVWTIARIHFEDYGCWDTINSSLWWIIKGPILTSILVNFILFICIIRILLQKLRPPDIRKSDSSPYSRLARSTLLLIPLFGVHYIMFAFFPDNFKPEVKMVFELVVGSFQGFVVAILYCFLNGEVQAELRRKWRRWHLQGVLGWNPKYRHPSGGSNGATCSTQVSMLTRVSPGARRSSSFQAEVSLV


Key:
[1] = Stability test 1: survival rate of peptide in phosphate buffer (pH 7.0) after storage, HPLC; type: physicochemical; details: 100 μM peptide, phosphate buffer pH 7.0, 40° C.; for survival rate after correction for water, 40° C. 2 week: 2 weeks (Table 6); for survival rate after correction for water, 40° C. 8 week: 8 weeks (Table 6); for survival rate after correction for water, 40° C. 4 week: 4 weeks (Table 8)
Method: The 1.0 mM peptide solutions were then diluted with phosphate buffer to 100 μM. […] The prepared peptide solutions were incubated for one month or 2 months in a 40° C. thermostatic bath to obtain stored samples.
Using the total weight of the aqueous peptide solution and storage vessel as the specimen weight, measurements were recorded as the specimen weights before storage and the specimen weights after storage under different storage conditions. The empty weight of the storage vessel was also measured, and the moisture permeability was determined by the following formula.
After stirring the standard sample and the stored samples with a vortex mixer, each peptide solution was transferred to an HPLC vial (Deactivated Qsert vial by Waters Co.). Reverse-phase HPLC (HPLC system: Prominence by Shimadzu Corp.) was conducted under the conditions shown in Table 3 below for analysis of the peptide solutions, and chromatograms were obtained.
The peak area value for the peptide in the chromatogram was calculated, and the survival rate (survival rate before correction for water) was calculated using formula (2). The survival rate after correction for water was also calculated from the survival rate before correction for water using formula (3) to take into account the permeability of the container.
Peptide solutions prepared by the same method as [Measuring sample preparation 1] for the peptides synthesized in Example 2 (peptides 13 to 16) were incubated for 2 weeks and 8 weeks in a thermostatic bath at 40° C. to obtain stored samples.
Peptide solutions prepared by the same method as [Measuring sample preparation 1] for the peptides synthesized in Example 2 (peptides 17 to 21) were incubated for 4 weeks in a thermostatic bath at 40° C. to obtain stored samples.
A peptide solution prepared by the same method as [Measuring sample preparation 1] for peptide 22 synthesized in Example 2 was incubated for 1 week and 4 weeks in a thermostatic bath at 40° C. to obtain stored samples.

PAC1 receptor = biological target: T1, PAC1 receptor; assay: cell-based or functional assay
VPAC1 receptor = biological target: T2, VPAC1 receptor; assay: cell-based or functional assay

Row | Molecule | survival rate after correction for water, 40° C. 2 week [1] [%] | survival rate after correction for water, 40° C. 8 week [1] [%] | further results
1 | CCCC[C@H](NC(=O)[C@H](CCC(N)=O)NC(=O)[C@H](CCCCN)NC(=O)[C@H](CCCNC(=N)N)NC(=O)[C@H](Cc1ccc(O)cc1)NC(=O)[C@H](CCCNC(=N)N)NC(=O)[C@H](CO)NC(=O)[C@H](Cc1ccc(O)cc1)NC(=O)[C@H](CO)NC(=O)[C@@H](Cc1nnn[nH]1)NC(=O)[C@@H](NC(=O)[C@H](Cc1ccccc1)NC(=O)[C@@H](NC(=O)CNC(=O)[C@@H](Cc1nnn[nH]1)NC(=O)[C@H](CO)NC(=O)[C@@H](N)Cc1c[nH]cn1)[C@@H](C)CC)[C@@H](C)O)C(=O)N[C@@H](C)C(=O)N[C@H](C(=O)N[C@@H](CCCCN)C(=O)N[C@@H](CCCCN)C(=O)N[C@@H](Cc1ccc(O)cc1)C(=O)N[C@@H](CC(C)C)C(=O)N[C@@H](C)C(=O)N[C@@H](C)C(=O)N[C@H](C(=O)N[C@@H](CC(C)C)C(N)=O)C(C)C)C(C)C [Peptide 13, HSTz(D)GI FTTz(D)SY SRYRK QNIAVK KYLAA VL] (H-HS[X1]GIFT[X1]SYSRYRKQ[Nle]AVKKYLAAVL-NH2) | 96.2 | 84.6 | 
2 | CCCC[C@H](NC(=O)[C@H](CCC(N)=O)NC(=O)[C@H](CCCCN)NC(=O)[C@H](CCCNC(=N)N)NC(=O)[C@H](Cc1ccc(O)cc1)NC(=O)[C@H](CCCNC(=N)N)NC(=O)[C@H](CO)NC(=O)[C@H](Cc1ccc(O)cc1)NC(=O)[C@H](CO)NC(=O)[C@@H](Cc1nnn[nH]1)NC(=O)[C@@H](NC(=O)[C@H](Cc1ccccc1)NC(=O)[C@@H](NC(=O)CNC(=O)[C@H](Cc1nnn[nH]1)NC(=O)[C@H](CO)NC(=O)[C@@H](N)Cc1c[nH]cn1)[C@@H](C)CC)[C@@H](C)O)C(=O)N[C@@H](C)C(=O)N[C@H](C(=O)N[C@@H](CCCCN)C(=O)N[C@@H](CCCCN)C(=O)N[C@@H](Cc1ccc(O)cc1)C(=O)N[C@@H](CC(C)C)C(=O)N[C@@H](C)C(=O)N[C@@H](C)C(=O)N[C@H](C(=O)N[C@@H](CC(C)C)C(N)=O)C(C)C)C(C)C [Peptide 14, HSTzGI FTTz(D)SY SRYRK QNIAVK KYLAA VL] (H-HS[Ala(1H-tetrazol-5-yl)]GIFT[X1]SYSRYRKQ[Nle]AVKKYLAAVL-NH2) | 96.3 | 84.5 | 
3 | CCCC[C@H](NC(=O)[C@H](CCC(N)=O)NC(=O)[C@H](CCCCN)NC(=O)[C@H](CCCNC(=N)N)NC(=O)[C@H](Cc1ccc(O)cc1)NC(=O)[C@H](CCCNC(=N)N)NC(=O)[C@H](CO)NC(=O)[C@H](Cc1ccc(O)cc1)NC(=O)[C@H](CO)NC(=O)[C@H](Cc1nnn[nH]1)NC(=O)[C@@H](NC(=O)[C@H](Cc1ccccc1)NC(=O)[C@@H](NC(=O)CNC(=O)[C@@H](Cc1nnn[nH]1)NC(=O)[C@H](CO)NC(=O)[C@@H](N)Cc1c[nH]cn1)[C@@H](C)CC)[C@@H](C)O)C(=O)N[C@@H](C)C(=O)N[C@H](C(=O)N[C@@H](CCCCN)C(=O)N[C@@H](CCCCN)C(=O)N[C@@H](Cc1ccc(O)cc1)C(=O)N[C@@H](CC(C)C)C(=O)N[C@@H](C)C(=O)N[C@@H](C)C(=O)N[C@H](C(=O)N[C@@H](CC(C)C)C(N)=O)C(C)C)C(C)C [Peptide 15, HSTz(D)GI FTTzSY SRYRK QNIAVK KYLAA VL] (H-HS[X1]GIFT[Ala(1H-tetrazol-5-yl)]SYSRYRKQ[Nle]AVKKYLAAVL-NH2) | 95.6 | 81.3 | 
4 | CCCC[C@H](NC(=O)[C@H](CCC(N)=O)NC(=O)[C@H](CCCCN)NC(=O)[C@H](CCCNC(=N)N)NC(=O)[C@H](Cc1ccc(O)cc1)NC(=O)[C@H](CCCNC(=N)N)NC(=O)[C@H](CO)NC(=O)[C@H](Cc1ccc(O)cc1)NC(=O)[C@H](CO)NC(=O)[C@H](CCc1nnn[nH]1)NC(=O)[C@@H](NC(=O)[C@H](Cc1ccccc1)NC(=O)[C@@H](NC(=O)CNC(=O)[C@H](Cc1nnn[nH]1)NC(=O)[C@H](CO)NC(=O)[C@@H](N)Cc1c[nH]cn1)[C@@H](C)CC)[C@@H](C)O)C(=O)N[C@@H](C)C(=O)N[C@H](C(=O)N[C@@H](CCCCN)C(=O)N[C@@H](CCCCN)C(=O)N[C@@H](Cc1ccc(O)cc1)C(=O)N[C@@H](CC(C)C)C(=O)N[C@@H](C)C(=O)N[C@@H](C)C(=O)N[C@H](C(=O)N[C@@H](CC(C)C)C(N)=O)C(C)C)C(C)C [Peptide 16, HSTzGI FTegTzSY SRYRK QNIAVK KYLAA VL] (H-HS[Ala(1H-tetrazol-5-yl)]GIFT[X3]SYSRYRKQ[Nle]AVKKYLAAVL-NH2) | 94.4 | 80.3 | 
5 | CCCC[C@H](NC(=O)[C@H](CCC(N)=O)NC(=O)[C@H](CCCCN)NC(=O)[C@H](CCCNC(=N)N)NC(=O)[C@H](Cc1ccc(O)cc1)NC(=O)[C@H](CCCNC(=N)N)NC(=O)[C@H](CO)NC(=O)[C@H](Cc1ccc(O)cc1)NC(=O)[C@H](CO)NC(=O)[C@H](Cc1nnn[nH]1)NC(=O)[C@@H](NC(=O)[C@H](Cc1ccccc1)NC(=O)[C@@H](NC(=O)CNC(=O)[C@H](Cc1nnn[nH]1)NC(=O)[C@H](CO)NC(=O)[C@H](Cc1c[nH]cn1)NC(=O)CC)[C@@H](C)CC)[C@@H](C)O)C(=O)N[C@@H](C)C(=O)N[C@H](C(=O)N[C@@H](CCCCN)C(=O)N[C@@H](CCCCN)C(=O)N[C@@H](Cc1ccc(O)cc1)C(=O)N[C@@H](CC(C)C)C(=O)N[C@@H](C)C(=O)N[C@@H](C)C(=O)N[C@H](C(=O)N[C@@H](CC(C)C)C(N)=O)C(C)C)C(C)C [Peptide 17, HSTzGI FTTzSY SRYRK QNIAVK KYLAA VL] (Propionyl-HS[Ala(1H-tetrazol-5-yl)]GIFT[Ala(1H-tetrazol-5-yl)]SYSRYRKQ[Nle]AVKKYLAAVL-NH2) |  |  | survival rate after correction for water, 40° C. 4 week [1]: 59.2%
6 | CCCC[C@H](NC(=O)[C@H](CCC(N)=O)NC(=O)[C@H](CCCCN)NC(=O)[C@H](CCCNC(=N)N)NC(=O)[C@H](Cc1ccc(O)cc1)NC(=O)[C@H](CCCNC(=N)N)NC(=O)[C@H](CO)NC(=O)[C@H](Cc1ccc(O)cc1)NC(=O)[C@H](CO)NC(=O)[C@H](Cc1nnn[nH]1)NC(=O)[C@@H](NC(=O)[C@H](Cc1ccccc1)NC(=O)[C@@H](NC(=O)CNC(=O)[C@H](Cc1nnn[nH]1)NC(=O)[C@H](CO)NC(=O)[C@H](Cc1c[nH]cn1)NC(=O)CC(C)C)[C@@H](C)CC)[C@@H](C)O)C(=O)N[C@@H](C)C(=O)N[C@H](C(=O)N[C@@H](CCCCN)C(=O)N[C@@H](CCCCN)C(=O)N[C@@H](Cc1ccc(O)cc1)C(=O)N[C@@H](CC(C)C)C(=O)N[C@@H](C)C(=O)N[C@@H](C)C(=O)N[C@H](C(=O)N[C@@H](CC(C)C)C(N)=O)C(C)C)C(C)C [Peptide 21] (Isovaleryl-HS[Ala(1H-tetrazol-5-yl)]GIFT[Ala(1H-tetrazol-5-yl)]SYSRYRKQ[Nle]AVKKYLAAVL-NH2) |  |  | survival rate after correction for water, 40° C. 4 week [1]: 69.0%
7 | HS[Tz]GIFA[Tz]AYARYRKQMAVKKYLAAVL-NH2 (also: Tz racemic) [Peptide 3] |  |  | EC50, cAMP assay (Hit Hunter cAMP, chemiluminescence RLU) (PAC1 receptor): 0.689 nM; EC50, cAMP assay (Hit Hunter cAMP, chemiluminescence RLU) (VPAC1 receptor): 0.111 nM
